Results from US8440794B2, “Peptide sequences, their branched form and use thereof for antimicrobial applications” (Universita' Degli Studi di Siena, priority 2008, dated 2013).
Where two headings read alike, the source gives them in different places. Where a SMILES comes first, the peptide text is derived from it. Bridges are numbered along the chain shown (N, C = ends). Roman numbers before positions name the chains, in order. Where no end group is shown, it is not given here. [ ]: non-standard residue; d: D form. βAla = NCCC(=O)O

How the values were obtained:
P. aeruginosa AV65 = type: cell-based, Pseudomonas aeruginosa
Procedure: (§1) M33, […], M35 and M36 MICs were determined against strains of several bacterial species, including Gram-negative pathogens and also Staphylococcus aureus (Table 1). MICs in the micromolar range were observed against several Gram-negatives including Pseudomonas aeruginosa, Acinetobacter baumannii and most Enterobacteriaceae, with the exception of Proteus mirabilis, Serratia marcescens and Burkholderia cepacia. Activity of peptides was retained against MDR strains with various resistance mechanisms (such as extended-spectrum beta-lactamases and carbapenemases), including MDR P. aeruginosa strains from CF patients. Antimicrobial profile of M33, […] and potency were overall similar to those of polymyxin B, although M33, M34, M35 and M36 also appeared to have some activity against S. aureus (Table 1).

P. aeruginosa EF-OBG6-1 = type: cell-based, Pseudomonas aeruginosa
Procedure: as §1

P. aeruginosa PAO-1 = type: cell-based, Pseudomonas aeruginosa
Procedure: as §1

[1] = system: P. aeruginosa SC-BGr12-02; type: cell-based, Pseudomonas aeruginosa
Procedure: as §1

[2] = system: P. aeruginosa SC-CNm03-07; type: cell-based, Pseudomonas aeruginosa
Procedure: as §1

[3] = system: P. aeruginosa SC-DMr05-04; type: cell-based, Pseudomonas aeruginosa
Procedure: as §1

[4] = system: P. aeruginosa SC-GMm03-05; type: cell-based, Pseudomonas aeruginosa
Procedure: as §1

[5] = system: P. aeruginosa SC-MDm03-02; type: cell-based, Pseudomonas aeruginosa
Procedure: as §1

[6] = system: P. aeruginosa SC-MDr03-06; type: cell-based, Pseudomonas aeruginosa
Procedure: as §1

[7] = system: P. aeruginosa SC-VMr04-05; type: cell-based, Pseudomonas aeruginosa
Procedure: as §1

P. aeruginosa VR-143/97 = type: cell-based, Pseudomonas aeruginosa
Procedure: as §1

[8] = system: Acinetobacter baumannii RUH 134; type: cell-based
Procedure: as §1

[9] = system: Burkholderia cepacia ORB-99; type: cell-based
Procedure: as §1

[10] = system: Enterobacer aerogenes W03BG0067; type: cell-based
Procedure: as §1

[11] = system: Enterobacter cloacae W03AN0041; type: cell-based
Procedure: as §1

[12] = system: Escherichia coli ATCC 25922; type: cell-based
Procedure: as §1

[13] = system: Klebsiella pneumoniae ATCC 13833; type: cell-based
Procedure: as §1

[14] = system: Proteus mirabilis W03VA1017; type: cell-based
Procedure: as §1

[15] = system: Pseudomonas aeruginosa ATCC 27853; type: cell-based
Procedure: as §1

[16] = system: Serratia marcescens W03BG0003; type: cell-based
Procedure: as §1

[17] = system: Staphylococcus aureus ATCC 29213; type: cell-based
Procedure: as §1

K pneumoniae 7086042 = type: cell-based, Klebsiella pneumoniae
Procedure: as §1

K pneumoniae C8-27 = type: cell-based, Klebsiella pneumoniae
Procedure: as §1

K pneumoniae FIPP-1 = type: cell-based, Klebsiella pneumoniae
Procedure: as §1

E. coli W03BG0025 = type: cell-based, Escherichia coli
Procedure: as §1

A. baumannii MR157 = type: cell-based, Acinetobacter baumannii
Procedure: as §1

A. baumannii RUH 875 = type: cell-based, Acinetobacter baumannii
Procedure: as §1

S. aureus 3851 = type: cell-based, Staphylococcus aureus
Procedure: as §1

human erythrocytes = type: cell-based
Procedure: FIG. 2. Percentage of haemolysis provoked by tetra-branched M33 peptide incubated 3 or 24 hours with human red blood cells.
Haemolysis of fresh human erythrocytes was determined using the method of Parpart, summarized as follows. A calibration curve was constructed by suspending fresh human erythrocytes in phosphate buffer (pH 7.4, 110 mM sodium phosphate) with various concentrations of NaCl and incubated for 30 min at room temperature. Samples were centrifuged at 500×g for 5 minutes, and haemoglobin release was monitored by measuring the absorbance of supernatants at 540 nm. The absorbance obtained with 0.1% NaCl corresponded to 100% lysis and that with 1% NaCl, to 0% lysis. Peptides dissolved in PBS were added to human erythrocyte solution at several concentrations. The resulting suspension was incubated separately at 37° C. for 2 h and 24 h. Release of hemoglobin was monitored by measuring the absorbance of the suspernatant at 540 nm after centrifuging and haemolysis percentage was calculated using the calibration curve.

E. coli TG1 = experiment: Antibacterial activity against E. coli TG1 cells (CFU count after 75 min incubation, FIG. 1A); type: cell-based; conditions: 75 minutes at 37° C., CFU counted
Source text: FIG. 1. A, Antibacterial activity against E. coli TG1 cells. Comparison of the following tetra-branched peptides: M6 batch 1 synthesis (triangles), M6 batch 2 synthesis (squares), M6 batch 3 synthesis (white circles), which contain a mixture of Gln and pyroGlu (in unknown percentages) as first amino-acid, […] (asterisks), where the first amino-acid is 100% pyroGlu, and M33 (black circles), in which the first Gln was deleted. […] SD derived by means of three different experiments. Many different syntheses of M33 (and also of M34, M35 and M36, here not shown) gave perfectly overlapping results without any wavering outcome. B, Mass spectrometry analysis of tetra-branched peptide M6 crude mixture. Calculated molecular mass of M6 was 5195 Da. Two main peaks are present, one at 5197 Da corresponding to unmodified M6 and one at 5179 Da that corresponds to the secondary product with one pyroGlu in first position in the place of one of the four Gln. C, Mass spectrometry analysis of tetrabranched peptide M33 after 24 hours of incubation in serum. The peptide appears as a single peak at the expected molecular mass (4683 Da).
A single colony of E. coli TG1 strain was cultured in 2×TY medium to 0.2 OD^600. […] The following day colonies (CFU/ml) grown on plates were counted.

CC[C@H](C)[C@H](NC(=O)[C@H](CCCNC(=N)N)NC(=O)[C@@H](N)CCCCN)C(=O)N[C@@H](CCCNC(=N)N)C(=O)N[C@H](C(=O)N[C@@H](CCCNC(=N)N)C(=O)N[C@@H](CC(C)C)C(=O)N[C@@H](CO)C(=O)N[C@@H](C)C(=O)NCCCC[C@H](NC(=O)[C@H](C)NC(=O)[C@H](CO)NC(=O)[C@H](CC(C)C)NC(=O)[C@H](CCCNC(=N)N)NC(=O)[C@@H](NC(=O)[C@H](CCCNC(=N)N)NC(=O)[C@@H](NC(=O)[C@H](CCCNC(=N)N)NC(=O)[C@@H](N)CCCCN)[C@@H](C)CC)C(C)C)C(=O)NCCCC[C@H](NC(=O)[C@H](CCCCNC(=O)[C@H](C)NC(=O)[C@H](CO)NC(=O)[C@H](CC(C)C)NC(=O)[C@H](CCCNC(=N)N)NC(=O)[C@@H](NC(=O)[C@H](CCCNC(=N)N)NC(=O)[C@@H](NC(=O)[C@H](CCCNC(=N)N)NC(=O)[C@@H](N)CCCCN)[C@@H](C)CC)C(C)C)NC(=O)[C@H](C)NC(=O)[C@H](CO)NC(=O)[C@H](CC(C)C)NC(=O)[C@H](CCCNC(=N)N)NC(=O)[C@@H](NC(=O)[C@H](CCCNC(=N)N)NC(=O)[C@@H](NC(=O)[C@H](CCCNC(=N)N)NC(=O)[C@@H](N)CCCCN)[C@@H](C)CC)C(C)C)C(=O)NCCC(=O)O)C(C)C [M35, KRIRVRLSA] (I: H-KRIRVRLSAKK[βAla]-OH / II: H-KRIRVRLSAK / III: H-KRIRVRLSA / IV: H-KRIRVRLSA; amide I:10-IV:C, I:11-II:C, II:10-III:C; N-terminus assumed)
practically negligible haemolysis grade: Haemolysis of human red blood cells (human erythrocytes)
>24 µM: MIC ([9]; 24 h) | MIC ([14]; W03VA1017, 24 h) | MIC ([16]; W03BG0003, 24 h)
6 µM: MIC ([17]; ATCC 29213, 24 h) | MIC (S. aureus 3851; 3851, 24 h)
3 µM: MIC ([5]; SC-MDm03-02, 24 h) | MIC ([6]; SC-MDr03-06, 24 h) | MIC ([7]; SC-VMr04-05, 24 h) | MIC ([13]; ATCC 13833, 24 h) | MIC (K pneumoniae 7086042; 7086042, 24 h) | MIC (K pneumoniae FIPP-1; FIPP-1, 24 h) | MIC (A. baumannii MR157; MR157, 24 h) | MIC (A. baumannii RUH 875; RUH 875, 24 h)
1.5 µM: MIC (P. aeruginosa AV65; AV65, 24 h) | MIC (P. aeruginosa EF-OBG6-1; EF-OBG6-1, 24 h) | MIC (P. aeruginosa PAO-1; PAO-1, 24 h) | MIC ([1]; SC-BGr12-02, 24 h) | MIC ([2]; SC-CNm03-07, 24 h) | MIC ([3]; SC-DMr05-04, 24 h) | MIC ([4]; SC-GMm03-05, 24 h) | MIC (P. aeruginosa VR-143/97; VR-143/97, 24 h) | MIC ([8]; RUH 134, 24 h) | MIC ([10]; 24 h) | MIC ([11]; W03AN0041, 24 h) | MIC ([12]; ATCC 25922, 24 h) | MIC ([15]; ATCC 27853, 24 h) | MIC (K pneumoniae C8-27; C8-27, 24 h) | MIC (E. coli W03BG0025; W03BG0025, 24 h)

QKKIRVRLSA (also: tetra-branched MAP) [M6, previously reported tetra-branched MAP peptide with Gln as first amino-terminal residue, reference compound]
intermediate antimicrobial activities: Antibacterial activity against E. coli TG1 cells (comparison of tetra-branched peptides, FIG. 1A) (E. coli TG1)

Polymyxin B [reference compound]
1.5 µM: MIC (P. aeruginosa AV65; P. aeruginosa AV65, FQr AGr ESCr NEMr (MBL/IMP-13)) | MIC (P. aeruginosa PAO-1; P. aeruginosa PAO-1, reference strain, wild type) | MIC ([1]; P. aeruginosa SC-BGr12-02, CF clinical isolate, FQr AGr ESCr NEMr) | MIC ([3]; P. aeruginosa SC-DMr05-04, CF clinical isolate, FQr AGr ESCr NEMr) | MIC ([4]; P. aeruginosa SC-GMm03-05, CF clinical isolate, mucoid, FQr AGr ESCr NEMr) | MIC ([5]; P. aeruginosa SC-MDm03-02, CF clinical isolate, mucoid, FQr AGr ESCr NEMr) | MIC ([6]; P. aeruginosa SC-MDr03-06, CF clinical isolate, FQr AGr ESCr NEMr) | MIC ([7]; P. aeruginosa SC-VMr04-05, CF clinical isolate, FQr AGr ESCr NEMr) | MIC (P. aeruginosa VR-143/97; P. aeruginosa VR-143/97, FQr AGr ESCr NEMr (MBL/VIM-1)) | MIC ([8]; Acinetobacter baumannii RUH 134, reference strain, European clone II) | MIC ([15]; Pseudomonas aeruginosa ATCC 27853, reference strain, wild type) | MIC (K pneumoniae 7086042; K pneumoniae 7086042, FQr AGr ESCr NEMr (MBL/VIM-1)) | MIC (K pneumoniae FIPP-1; K pneumoniae FIPP-1, FQr AGr ESCr NEMr (MBL/KPC-3)) | MIC (A. baumannii MR157; A. baumannii MR157, FQr AGr ESCr NEMr (OXA/OXA-58)) | MIC (A. baumannii RUH 875; A. baumannii RUH 875, reference strain, European clone I)
0.7 µM: MIC (P. aeruginosa EF-OBG6-1; P. aeruginosa EF-OBG6-1, CF clinical isolate, FQr AGr ESCr NEMr (MBL/IMP-13)) | MIC ([2]; P. aeruginosa SC-CNm03-07, CF clinical isolate, mucoid, FQr AGr ESCr NEMr) | MIC ([10]; Enterobacer aerogenes W03BG0067, AGr ESCr (ESBL/SHV-5)) | MIC ([11]; Enterobacter cloacae W03AN0041, ESCr (ESBL/SHV-12)) | MIC ([12]; Escherichia coli ATCC 25922, reference strain, wild type) | MIC ([13]; Klebsiella pneumoniae ATCC 13833, reference strain, wild type) | MIC (K pneumoniae C8-27; K pneumoniae C8-27, FQr AGr ESCr ETPr (ESBL/CTX-M-15)) | MIC (E. coli W03BG0025; E. coli W03BG0025, FQr AGr ESCr (ESBL/CTX-M-15))
>96 µM: MIC ([9]; Burkholderia cepacia ORB-99, CF clinical isolate, wild type) | MIC ([14]; Proteus mirabilis W03VA1017, FQr ESCr (AmpC/CMY-16)) | MIC ([16]; Serratia marcescens W03BG0003, FQr AGr ESCr (ESBL/SHV-12))
96 µM: MIC ([17]; Staphylococcus aureus ATCC 29213, reference strain, PENr) | MIC (S. aureus 3851; S. aureus 3851, MR VANi)
